Assay results taken from patent publication US20260265334A1, “STAPLED PEPTIDES” (THE FLOREY INSTITUTE OF NEUROSCIENCE AND MENTAL HEALTH, priority 2023, published 2026).
One block for each molecule: values may come before it. Bridge positions count the residues as written; N and C are the ends. Square brackets hold non-standard residues; d marks the D form. Peptide text beside a SMILES is read from it. I, II: the chains in the order shown. αMeF = C[C@](N)(Cc1ccccc1)C(=O)O

How the values were obtained:
[1] = test system: mouse model of inflammatory persistent pain; assay: CFA model of inflammatory persistent pain; type: in vivo; conditions: co-injection with RXFP3 agonist
Protocol: Pilot studies were conducted in a mouse model of inflammatory persistent pain obtained by intraplantar injection of Complete Freund's Adjuvant (CFA). […] The effect is maximal at 30 minutes after the injection and vanished after 1 hour. The same result has been obtained in a rat CFA model with a similar time course of the antinociceptive effect.

RXFP4 [2] = biological target: T1, RXFP4 (Homo sapiens, UniProt Q8TDU9); assay: Eu-R3/I5 competition binding assay in CHO-K1-RXFP4 cells; parameters: expressed in transfected cells
Protocol: An Eu-R3/15 competition binding assay in CHO-K1-RXFP4 cells was carried out.
(§1) Competition binding curves for each peptide were performed in triplicate and each experiment was performed independently at least three times. Fluorescent measurements were carried out at excitation of 340 nm and emission of 614 nm on a BMG POLARstar plate reader (BMG Labtech, Melbourne, Australia). Pooled data were presented as mean±S.E.M. of specific binding and are fitted using a one-site binding curve in GraphPad Prism version 8 (GraphPad Inc., San Diego, USA). Statistical analyses were conducted using one-way analysis of variance with uncorrected Fisher's least significant difference (LSD) post-hoc analysis in GraphPad Prism version 9.
(§2) An additional analogue of INSL5 was utilised as a control, INSL5-A13, having an A chain (SEQ ID NO: 9) and a B chain (SEQ ID NO: 10) with a first disulfide bond between Cys 1 of the A chain and Cys 7 of the B chain, and a second disulfide bond between Cys 14 of the A chain and Cys 19 of the B chain:
(§3) Competition binding and cAMP activity assay were conducted by a procedure analogous to that described above for Example 3. The results are shown in FIG. 24 (RXFP3) and FIG. 25 (RXFP4).
Target sequence in this assay (Q8TDU9 whole entry): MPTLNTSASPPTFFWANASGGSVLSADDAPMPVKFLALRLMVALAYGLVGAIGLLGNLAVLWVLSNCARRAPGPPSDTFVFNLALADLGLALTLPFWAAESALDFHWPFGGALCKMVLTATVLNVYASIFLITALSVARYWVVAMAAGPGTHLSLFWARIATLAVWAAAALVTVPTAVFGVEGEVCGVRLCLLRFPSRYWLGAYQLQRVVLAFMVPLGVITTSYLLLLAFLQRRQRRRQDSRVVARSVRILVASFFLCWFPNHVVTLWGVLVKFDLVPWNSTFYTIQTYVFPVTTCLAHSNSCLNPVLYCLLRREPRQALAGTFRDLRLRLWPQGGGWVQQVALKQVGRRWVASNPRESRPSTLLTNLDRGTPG

C57B16 mice = assay: Colorectal propulsion (bead expulsion) in loperamide-constipated mice; type: in vivo, mouse; conditions: 20 μg/kg i.p., 10 minutes after loperamide 1 mg/kg s.c.
Protocol: Male C57B16 mice (20-30 g; ARC), between the ages of 3 to 5 months, were used for all studies. All experiments were conducted in accordance with the National Health and Medical Research Council (NHMRC) guidelines for the care and use of animals and with approval from the Florey Institute of Neuroscience and Mental Health Animal Ethics Committee (#18-128 FINMH and #18-081 FINMH). All animals were group housed (2-6 per cage) and maintained in a humidity-controlled room at 22° C. under a 12 hours light/dark cycle with access to food and water ad libitum.
Loperamide (Sigma-Aldrich) was prepared in 1% Tween-80 (SigmaAldrich) in distilled water and was administered subcutaneously (s.c.) at the back of the neck to induce constipation. Mice were injected with either vehicle (1% Tween-80/water) or loperamide (0.3, 1, 3 mg/kg). INSL5-A13 (20 μg/kg) (SEQ ID NOs 9 and 10) and single-chain αF stapled analogue (200 μg/kg) (SEQ ID NO 16) were dissolved in distilled water and injected intraperitoneally (i.p.) 10 minutes after loperamide was administered (1 mg/kg, s.c.). At 20 minutes post peptide injection, mice were lightly anesthetized with 2% (v/v) isoflurane in O2, administered at 1 L/min for a maximum of 15 seconds following induction with 5% isoflurane in O2 at 1 L/min. […] The time taken from bead insertion to bead expulsion was recorded. […] The time was scored as 30 minutes. […]

RXFP4 [3] = biological target: T1, RXFP4; assay: Inhibition of forskolin-induced cAMP activity in CHO-K1-RXFP4 cells (pCRE β-galactosidase reporter); type: cell-based; parameters: expressed in transfected cells
Protocol: For agonist assays, cells were stimulated with forskolin (5 μM for RXFP3, 1 μM for RXFP4)±increasing concentrations of each peptide for 6 hours. Data were expressed as the % forskolin activity, whereby 100% was defined as forskolin alone and 0% as maximum agonist stimulation (1 μM Analogue 2 for RXFP3 and 1 μM Analogue 13 for RXFP4). Data were analysed and plotted using GraphPad Prism 9 and are expressed as the mean±SEM of the pooled data. Statistical analysis was conducted using one-way ANOVA with Uncorrected Fisher's LSD post-hoc analysis using GraphPad Prism 9.
as §2, §3
Target sequence in this assay (Q8TDU9 whole entry): as above

RXFP3 [4] = biological target: T2, RXFP3 (Homo sapiens, UniProt Q9NSD7); assay: Eu-H3B1-22R competition binding assay in CHO-K1-RXFP3 cells; conditions: 5 nM Eu-H3B1-22R, mean ± SEM (n), Table 2, read-out: Eu-H3B1-22R pKi (converted)
T2 construct: expressed in transfected cells
T2 sequence (Q9NSD7 1-469): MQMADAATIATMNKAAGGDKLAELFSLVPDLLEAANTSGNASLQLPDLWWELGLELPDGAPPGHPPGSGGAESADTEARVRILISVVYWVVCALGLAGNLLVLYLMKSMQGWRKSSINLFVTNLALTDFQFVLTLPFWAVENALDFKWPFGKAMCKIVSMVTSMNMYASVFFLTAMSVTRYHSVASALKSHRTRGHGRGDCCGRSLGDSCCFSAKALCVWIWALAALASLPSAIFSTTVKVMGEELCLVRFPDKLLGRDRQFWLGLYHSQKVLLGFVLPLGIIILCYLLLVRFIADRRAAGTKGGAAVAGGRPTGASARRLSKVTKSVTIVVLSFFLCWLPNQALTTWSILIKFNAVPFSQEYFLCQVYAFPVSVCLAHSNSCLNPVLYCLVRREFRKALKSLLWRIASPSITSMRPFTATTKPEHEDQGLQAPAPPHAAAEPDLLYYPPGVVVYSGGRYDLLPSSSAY
Protocol: An Eu-H3B1-22R competition binding assay was conducted in CHO-K1-RXFP3 cells.
as §1, §3

RXFP4 [5] = biological target: T1, RXFP4; assay: NanoBRET β-arrestin2 recruitment assay, RXFP4-NLuc / Venus-β-arrestin2 in HEK293T cells; type: cell-based; parameters: expressed in transfected cells; host or cells: HEK293T (transient, Lipofectamine 2000, pcDNA3.1/Zeo(+)); conditions: AUC of the entire time course; text of b227; read-out: pEC50, RXFP4 β-arrestin2 recruitment (converted)
Protocol: (§4) The inventors assessed if H3B10-27(13/17αF) retained the ability to recruit β-arrestin2 and therefore display full agonist activity at RXFP3 and RXFP4, in comparison to Peptide 5.
(§5) For NanoBRET β-arrestin2 recruitment assays, HEK293T cells were plated onto a six-well plate, and were transfected the following day with β-arrestin2-Venus and either RXFP3-Nluc or RXFP4-Nluc, in the pcDNA3.1/Zeo(+) vector, using Lipofectamine 2000. The next day, cells were washed with DPBS and resuspended in complete media containing 25 mM HEPES but no phenol red, and were seeded into a 96-well CulturPlate (PerkinElmer). The next day, prior to the assay, cells were pre-incubated in phenol red free media with NLuc substrate, 5 μM coelenterazine 400a for RXFP3-nLuc and 5 μM coelenterazine h for RXFP4-NLuc (both from Nanolight, Pinetop, AZ, USA) to establish a baseline, before addition of ligand or vehicle. Emissions were detected simultaneously using a PHERAstar FSX plate reader (BMG Labtech) with 450/80 nm and 535/30 nm filters. Ligand-induced BRET ratio was calculated by subtracting the ratio of 535/30 nm emissions to 450/80 nm emissions for vehicle from the same ratio for ligand-treated wells. […]
Target sequence in this assay (Q8TDU9 whole entry): as the sequence (Q8TDU9 whole entry) above
Target sequence in this assay (P32121 whole entry partner): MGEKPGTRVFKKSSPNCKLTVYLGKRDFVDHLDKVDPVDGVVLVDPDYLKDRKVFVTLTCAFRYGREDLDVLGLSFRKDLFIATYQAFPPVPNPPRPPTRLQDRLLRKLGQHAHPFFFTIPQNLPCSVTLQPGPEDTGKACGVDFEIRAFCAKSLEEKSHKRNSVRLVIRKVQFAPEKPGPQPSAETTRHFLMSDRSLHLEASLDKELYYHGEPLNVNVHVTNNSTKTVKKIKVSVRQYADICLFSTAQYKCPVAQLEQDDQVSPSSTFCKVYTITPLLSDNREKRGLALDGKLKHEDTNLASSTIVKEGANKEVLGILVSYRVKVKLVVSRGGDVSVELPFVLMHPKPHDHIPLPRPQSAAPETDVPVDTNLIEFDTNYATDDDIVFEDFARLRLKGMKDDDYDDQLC

[6] = In vitro serum stability in human serum at 37° C.; conditions: human serum
Protocol: Human serum (400 μl) was mixed with 200 μg peptide dissolved in 100 μl of water at 37° C. Eighty (80) μl of sample was removed at various time points (0 min, 30 min, 60 min, 120 min, 240 min, and 480 min), and 160 μl of acetonitrile added to precipitate plasma proteins. The solution was then centrifuged at 12000 rpm for 15 min at 4° C. 200 μl of supernatant was taken and mixed with 240 μl of milli-Q water and each sample analysed by RP-HPLC (2×80 μL injection) by measuring the area under the peak at appropriate retention times compared to the peak area of the peptide at time zero (100%). Data analysis (n=3, duplicate) was performed using a non-linear fit one-phase decay model in GraphPad Prism 9.

RXFP3 [7] = biological target: T2, RXFP3; assay: Inhibition of forskolin-induced cAMP activity in CHO-K1-RXFP3 cells (pCRE β-galactosidase reporter); type: cell-based; conditions: 5 μM forskolin, 6 hours, Table 2, read-out: cAMP pEC50 (converted)
Protocol: Since RXFP3 is coupled to Gi/o proteins, peptides were tested for their ability to activate RXFP3 as measured via their ability to inhibit forskolin-induced cAMP activity in CHO-K1-RXFP3 or CHO-K1-RXFP4 cells transfected with a pCRE (cAMP Response Element) β-galactosidase reporter plasmid (as described in Belgi, A et al., Structure and function relationship of murine insulin-like peptide 5 (INSL5): free C-terminus is essential for RXFP4 receptor binding and activation. Biochemistry 2011, 50 (39), 8352-61; and Haugaard-Kedstrom, L. M et al., Synthesis and pharmacological characterization of a europium-labelled single-chain antagonist for binding studies of the relaxin-3 receptor RXFP3. Amino Acids 2015, 47 (6), 1267-71). For agonist assays, cells were stimulated with forskolin (5 μM for RXFP3, 1 μM for RXFP4)±increasing concentrations of each peptide for 6 hours. Data were expressed as the % forskolin activity, whereby 100% was defined as forskolin alone and 0% as maximum agonist stimulation (1 μM Analogue 2 for RXFP3 and 1 μM Analogue 13 for RXFP4). Data were analysed and plotted using GraphPad Prism 9 and are expressed as the mean±SEM of the pooled data. Statistical analysis was conducted using one-way ANOVA with Uncorrected Fisher's LSD post-hoc analysis using GraphPad Prism 9.
as §3

RXFP3 [8] = biological target: T3, RXFP3 (Homo sapiens, UniProt Q9NSD7); assay: NanoBRET β-arrestin2 recruitment assay, RXFP3-NLuc / Venus-β-arrestin2 in HEK293T cells; type: cell-based
T3 construct: expressed in transfected cells; host or cells: HEK293T (transient, Lipofectamine 2000, pcDNA3.1/Zeo(+))
Protocol: as §4
T3 sequence (P32121 whole entry partner, one chain of several): as the sequence (P32121 whole entry partner) above
The RXFP3 β-arrestin2 recruitment assay was carried out by PCR cloning NLuc onto the C-terminus of human RXFP3 in an identical manner to the RXFP3-rLuc8 construct to create pcDNA3.1-RXFP3-NLuc. The construct was sequenced on both strands to confirm that the NLuc was in frame with RXFP3 and there were no additional PCR mutations. pcDNA3.1-RXFP3-NL was tested in parallel with pcDNA3.1-RXFP3 in cAMP activity assays to determine if the C-terminal nanoluciferase fusion affected agonist activity.
as §5, with “The next day, prior to the assay, cells were pre-incubated in phenol red free media with NLuc substrate, 5 μM coelenterazine 400a for RXFP3-nLuc and 5 μM coelenterazine h for RXFP4-NLuc (both from Nanolight, Pinetop, AZ, USA) to establish a baseline, before addition of ligand or vehicle.” left out

Molecule: R3(B1-22): R3(B1-22) RXFP3 antagonist, co-injected in pain model; possibly the same as H3B1-22R (RAAPYGVRLSGREFIRAVIFTSR)
effect of co-injection on the antinociceptive effects of the agonists [1]: fully abolished

Eu-R3/I5 pKi (RXFP4 [2]; RXFP4, Table 5): 7.46 ± 0.06 (7)
cAMP pEC50 (RXFP4 [3]; RXFP4, Table 5): 8.10 ± 0.10 (4)
Molecule: CC[C@H](C)[C@@H]1NC(=O)[C@H](Cc2ccc(O)cc2)NC(=O)[C@H]([C@@H](C)CC)NC(=O)[C@H](C(C)C)NC(=O)[C@H]([C@@H](C)O)NC(=O)[C@H](CCCNC(=N)N)NC(=O)[C@H]([C@@H](C)CC)NC(=O)[C@H](Cc2ccc(O)cc2)NC(=O)[C@H](CCC(=O)O)NC(=O)[C@H](CC(C)C)NC(=O)CNC(=O)[C@@H](NC(=O)[C@H](CC(C)C)NC(=O)[C@H](CCCNC(=N)N)NC(=O)[C@@H](NC(=O)[C@H](CO)NC(=O)[C@H](CCC(=O)O)NC(=O)[C@@H](N)CCCCN)C(C)C)CSSC[C@H](N)C(=O)N[C@@H]([C@@H](C)O)C(=O)N[C@@H](CC(=O)O)C(=O)NCC(=O)N[C@@H](C)C(=O)N[C@@H](CO)C(=O)N[C@@H](CCSC)C(=O)N[C@@H](CCCCN)C(=O)N[C@@H](CC(=O)O)C(=O)N[C@@H](CC(C)C)C(=O)N[C@@H](CO)C(=O)N[C@@H](C)C(=O)N[C@@H](CC(C)C)C(=O)N[C@H](C(=O)O)CSSC[C@@H](C(=O)N[C@@H](C)C(=O)N[C@@H](CO)C(=O)N[C@@H](CO)C(=O)N[C@@H](CCCNC(=N)N)C(=O)N[C@@H](Cc2c[nH]c3ccccc23)C(=O)O)NC1=O [INSL5-A13] (I: H-KESVRLCGLEYIRTVIYICASSRW-OH / II: H-CTDGASMKDLSALC-OH; disulfide I:7-II:1, I:19-II:14; N-terminus and C-terminus assumed)
colorectal propulsion (bead expulsion) (C57B16 mice): effective in accelerating colorectal propulsion

Ki (RXFP3 [4]): 148 nM
Ki (RXFP4 [2]; RXFP4, CHO-K1-RXFP4 cells, 5 nM Eu-R3/I5, Table 3, read-out: Eu-R3/I5 pKi (converted)): 155 nM
EC50 (RXFP4 [5]): 2690 nM
half-life at 400 µg/mL [6]: ~5 h
EC50 (RXFP3 [7]): 6.92 nM
EC50 (RXFP4 [3]; RXFP4, CHO-K1-RXFP4 cells, 1 μM forskolin, 6 hours, Table 3, read-out: cAMP pEC50 (converted)): 55 nM
EC50 (RXFP3 [8]; AUC of NanoBRET time course, Table 4, read-out: RXFP3 pEC50 (β-arrestin2 recruitment) (converted)): 64.6 nM
EC50 (RXFP3 [8]; AUC of the entire time course, text of b227, read-out: pEC50, RXFP3 β-arrestin2 recruitment (converted)): 89.1 nM
Molecule: CC[C@H](C)[C@H](NC(=O)[C@H](Cc1ccccc1)NC(=O)[C@](C)(Cc1ccccc1)NC(=O)[C@H](CCCNC(=N)N)NC(=O)CNC(=O)[C@@H](N)CO)C(=O)N[C@@H](CCCNC(=N)N)C(=O)N[C@@](C)(Cc1ccccc1)C(=O)N[C@H](C(=O)N[C@H](C(=O)N[C@@H](Cc1ccccc1)C(=O)N[C@H](C(=O)N[C@@H](CO)C(=O)NCC(=O)NCC(=O)N[C@@H](CO)C(=O)N[C@@H](CCCNC(=N)N)C(=O)N[C@@H](Cc1c[nH]c2ccccc12)C(=O)O)[C@@H](C)O)[C@@H](C)CC)C(C)C [H3B10-27(13/17αF)] (H-SGR[αMeF]FIR[αMeF]VIFTSGGSRW-OH)
